Values of other authors as cited in patent publication US20100008923A1, “Organic Compounds” (Novartis AG, priority 2006, published 2010).

Assays:
[1] = for Potential side effects at upper limits: at upper limit of daily intake
[2] = test system: HDAC; conditions: Kwon et al. (1998)

| Upper limit of daily intake [1] | Molecule | Potential side effects at upper limits [1] | HDAC inhibition [2] |
| --- | --- | --- | --- |
| Above 3000 mg | O=C(O)c1cccnc1 [B3, nicotinic acid] | Liver problems |  |
| Above 100 mg | Cc1ncc(CO)c(CO)c1O [B6, pyridoxine] |  |  |
|  | Nc1nc2ncc(CNc3ccc(C(=O)N[C@@H](CCC(=O)O)C(=O)O)cc3)nc2c(=O)[nH]1 [B9, folic acid] | No known |  |
|  | cyanocobalamin [B12] | No known |  |
|  | depudecin |  | inhibit HDAC at micromolar concentrations |
